The source of these data is ChEMBL document CHEMBL5500402, “Potent, Selective Agonists for the Cannabinoid-like Orphan G Protein-Coupled Receptor GPR18: A Promising Drug Target for Cancer and Immunity” (J Med Chem, 2024).

Experiment [1] has as its target T1, N-arachidonyl glycine receptor (Homo sapiens, UniProt Q14330).
T1 sequence (Q14330 whole entry): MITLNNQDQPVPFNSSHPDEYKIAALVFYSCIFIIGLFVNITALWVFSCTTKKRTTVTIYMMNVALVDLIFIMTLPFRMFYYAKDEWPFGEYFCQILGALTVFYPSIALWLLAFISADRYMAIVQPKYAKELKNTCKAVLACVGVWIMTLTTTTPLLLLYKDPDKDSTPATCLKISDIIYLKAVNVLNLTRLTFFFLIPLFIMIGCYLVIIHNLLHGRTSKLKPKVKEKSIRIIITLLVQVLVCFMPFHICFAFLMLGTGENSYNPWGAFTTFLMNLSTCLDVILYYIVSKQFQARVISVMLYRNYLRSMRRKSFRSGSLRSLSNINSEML
The experiment is described as follows: Agonist activity at human GPR18 expressed in CHO cells assessed as activation by measuring beta-arrestin2 recruitment incubated for 90 mins by luminescence based assay. It counts as functional, cell-based.

Experiment [2] concerns the target T2, N-arachidonyl glycine receptor (Mus musculus, UniProt Q8K1Z6).
T2 sequence (Q8K1Z6 whole entry): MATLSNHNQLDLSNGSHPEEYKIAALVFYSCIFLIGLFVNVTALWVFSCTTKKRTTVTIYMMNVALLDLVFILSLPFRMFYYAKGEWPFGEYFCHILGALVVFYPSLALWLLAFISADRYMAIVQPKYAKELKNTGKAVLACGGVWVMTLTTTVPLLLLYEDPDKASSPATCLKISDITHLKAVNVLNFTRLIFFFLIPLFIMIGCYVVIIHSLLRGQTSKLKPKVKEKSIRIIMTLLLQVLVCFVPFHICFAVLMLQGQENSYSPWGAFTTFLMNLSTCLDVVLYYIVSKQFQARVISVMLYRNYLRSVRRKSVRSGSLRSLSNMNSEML
Description: Agonist activity at mouse GPR18 expressed in CHO cells assessed as activation by measuring beta-arrestin2 recruitment incubated for 90 mins by luminescence based assay

The target in experiment [3] is Cannabinoid receptor 2 (Homo sapiens, UniProt P34972). The experiment is described as follows: Displacement of [3H]-CP55940 from human CB2 receptor expressed in CHO cells assessed as inhibition constant by radioligand competition binding assay. It counts as cell-based.
The target of experiment [4] is Cannabinoid receptor 1 (Homo sapiens, UniProt P21554). Nature of the experiment: Displacement of [3H]-CP55940 from human CB1 receptor expressed in CHO cells assessed as inhibition constant by radioligand competition binding assay. It counts as cell-based.

A value given as a limit tells only on which side of the number the result lay.

Cannabinoid receptor 2, sequence (P34972 whole entry): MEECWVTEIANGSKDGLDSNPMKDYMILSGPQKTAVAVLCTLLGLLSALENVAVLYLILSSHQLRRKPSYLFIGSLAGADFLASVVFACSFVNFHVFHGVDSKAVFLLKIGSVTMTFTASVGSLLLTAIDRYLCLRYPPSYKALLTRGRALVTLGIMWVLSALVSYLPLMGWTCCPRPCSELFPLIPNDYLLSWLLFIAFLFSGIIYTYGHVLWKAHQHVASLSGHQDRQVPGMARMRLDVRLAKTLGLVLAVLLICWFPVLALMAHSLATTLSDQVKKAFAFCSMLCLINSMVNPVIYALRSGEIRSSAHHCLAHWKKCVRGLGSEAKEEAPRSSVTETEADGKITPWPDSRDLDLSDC
Cannabinoid receptor 1, sequence (P21554 whole entry): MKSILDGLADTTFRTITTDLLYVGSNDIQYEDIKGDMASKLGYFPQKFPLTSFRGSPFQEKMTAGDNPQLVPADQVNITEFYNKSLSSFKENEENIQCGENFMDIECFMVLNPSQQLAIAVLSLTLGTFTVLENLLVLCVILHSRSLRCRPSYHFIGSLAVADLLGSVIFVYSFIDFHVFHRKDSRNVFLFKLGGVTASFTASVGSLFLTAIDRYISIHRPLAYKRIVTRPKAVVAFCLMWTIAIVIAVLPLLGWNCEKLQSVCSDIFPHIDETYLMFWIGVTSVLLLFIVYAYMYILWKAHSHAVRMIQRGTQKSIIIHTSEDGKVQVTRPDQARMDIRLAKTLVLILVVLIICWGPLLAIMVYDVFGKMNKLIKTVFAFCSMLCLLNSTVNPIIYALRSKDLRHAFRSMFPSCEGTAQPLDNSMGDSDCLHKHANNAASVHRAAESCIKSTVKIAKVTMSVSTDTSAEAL

Regarding `CNS(=O)(=O)c1ccc(Cn2c(NCCc3c[nH]c4ccccc34)nc3c2c(=O)n(C)c(=O)n3C)cc1`, the concentration giving a half-maximal response (EC50) in experiment [1] is 3670 nM; in experiment [2] it was 3630 nM.

Consider `CCCCC/C=C\C/C=C\C/C=C\C/C=C\CCCC(=O)NCC(=O)O` [ARACHIDONOYL GLYCINE], for which the concentration for a half-maximal effect (EC50) in experiment [1] and in experiment [2] was more than 10000 nM in each case. Turning to `Cn1c(=O)c2c(nc3n2CCCCN3CCc2c[nH]c3ccccc23)n(C)c1=O`, in experiment [2], the response was half-maximal at 582 nM (EC50). As to `CCCNC(=O)c1ccc(Cn2c(NCCc3c[nH]c4ccccc34)nc3c2c(=O)n(C)c(=O)n3C)cc1`, the concentration for a half-maximal effect (EC50) in experiment [1] was 1410 nM; in experiment [2] it was 1270 nM.

In turn, `Cn1c(=O)c2c(nc(NCCc3c[nH]c4ccccc34)n2Cc2ccc(N)cc2)n(C)c1=O` came in with a 50% effective concentration (EC50) in experiment [2] of 241 nM. Take `Cn1c(=O)c2c(nc(NCCc3c[nH]c4ccccc34)n2Cc2ccccc2Br)n(C)c1=O`: the EC50 was 189 nM in experiment [1] and 156 nM in experiment [2]. Moreover, in experiment [3], the inhibition constant (Ki) worked out at 1690 nM. The compound `Cn1c(=O)c2c(nc3n2CCCN3CCc2c[nH]c3ccccc23)n(C)c1=O` registered a 50% effective concentration (EC50) in experiment [2] of 1780 nM. Take `C=CCn1c(NCCc2c[nH]c3ccccc23)nc2c1c(=O)n(C)c(=O)n2C`: the concentration for a half-maximal effect (EC50) in experiment [1] came out at 169 nM; in experiment [2] it was 379 nM.

With `Cn1c(=O)c2c(nc(NCCc3c[nH]c4ccccc34)n2Cc2ccccc2F)n(C)c1=O`, the EC50 in experiment [1] is 137 nM; in experiment [2], 128 nM. Consider `CCCn1c(NCCc2c[nH]c3ccccc23)nc2c1c(=O)n(C)c(=O)n2C`, for which the EC50 in experiment [1] was 196 nM; in experiment [2] it was 299 nM.

`Cn1c(=O)c2c(nc(NCCc3c[nH]c4ccccc34)n2Cc2ccc([N+](=O)[O-])cc2)n(C)c1=O` gave a concentration giving a half-maximal response (EC50) in experiment [2] of 280 nM.

Take `Cn1c(=O)c2c(nc(NCCc3c[nH]c4ccccc34)n2CCF)n(C)c1=O`: the EC50 in experiment [1] turned out to be 1390 nM; in experiment [2], 2640 nM. For the compound `Cn1c(=O)c2c(nc(NCCc3c[nH]c4ccccc34)n2Cc2ccc(F)cc2)n(C)c1=O`, the EC50 in experiment [1] turned out to be 54 nM; in experiment [2], 124 nM. With `Cn1c(=O)c2c(nc(NCCc3c[nH]c4ccccc34)n2Cc2cccc(Cl)c2)n(C)c1=O`, the EC50 was 71 nM in experiment [1] and 220 nM in experiment [2]. The inhibition constant (Ki) in experiment [3] was found to be 896 nM. For the compound `Cn1c(=O)c2c(nc(NCCc3c[nH]c4ccccc34)n2Cc2ccc(Cl)cc2)n(Cc2ccccc2)c1=O`, the EC50 in experiment [1] is more than 10000 nM; in experiment [2], 393 nM.

`C=C(C)[C@@H]1CCC(C)=C[C@H]1c1c(O)cc(O)cc1CCCCC`: the concentration giving a half-maximal response (EC50) in experiment [1] and in experiment [2] was more than 10000 nM each time.

On to `Cn1c(=O)c2c(nc(NCCc3c[nH]c4ccccc34)n2Cc2ccc(Cl)c(Cl)c2)n(C)c1=O`, for which the 50% effective concentration (EC50) in experiment [1] stood at 74 nM; in experiment [2], 90 nM. The like results for `CCC#CCn1c(NCCc2c[nH]c3ccccc23)nc2c1c(=O)n(C)c(=O)n2C` were, in that order, 254 nM and 371 nM. Consider `Cn1c(=O)c2c(nc(NCCc3c[nH]c4ccccc34)n2Cc2ccc(Cl)cc2)n(CC(F)(F)F)c1=O`, for which a half-maximal response in experiment [2] (EC50) required 711 nM. Same read-out and setting: for `Cn1c(=O)c2c(nc(NCCc3c[nH]c4ccccc34)n2Cc2c(Cl)cccc2Cl)n(C)c1=O` the value was 559 nM; for `Cn1c(=O)c2c(nc(NCCc3c[nH]c4ccccc34)n2CCOc2ccccc2)n(C)c1=O`, 334 nM. Turning to `COc1cccc(Cn2c(NCCc3c[nH]c4ccccc34)nc3c2c(=O)n(C)c(=O)n3C)c1`, the EC50 in experiment [1] was determined as 166 nM; in experiment [2], 245 nM. For `Cn1c(=O)c2c(nc(NCCc3c[nH]c4ccccc34)n2CCc2ccccc2)n(C)c1=O` the same measures were 442 nM and 288 nM. For `Cn1c(=O)c2c(nc(NCCc3c[nH]c4ccccc34)n2Cc2ccc(C(N)=O)cc2)n(C)c1=O` the same measures were 3600 nM and 4000 nM. For `C#CCn1c(NCCc2c[nH]c3ccccc23)nc2c1c(=O)n(C)c(=O)n2C` the same measures were 247 nM and 318 nM.

For the compound `CCCCn1c(NCCc2c[nH]c3ccccc23)nc2c1c(=O)n(C)c(=O)n2C`, the EC50 was found to be 151 nM in experiment [1] and 207 nM in experiment [2]. For `CC(=O)Nc1ccc(Cn2c(NCCc3c[nH]c4ccccc34)nc3c2c(=O)n(C)c(=O)n3C)cc1` the same measures were 218 nM and 281 nM. Regarding `Cn1c(=O)c2c(nc(NCCc3c[nH]c4ccccc34)n2Cc2ccc(Br)cc2)n(C)c1=O`, the EC50 in experiment [2] turned out to be 58 nM. Turning to `Cn1c(=O)c2c(nc(NCCc3c[nH]c4ccccc34)n2Cc2ccc(C(F)(F)F)cc2)n(C)c1=O`, the EC50 in experiment [1] was 136 nM; in experiment [2], 216 nM.

On to `Cn1c(=O)c2c(nc(NCCc3c[nH]c4ccccc34)n2Cc2ccc(Cl)cc2)n(CCO)c1=O`, for which, in experiment [2], the EC50 is 1200 nM. `Cn1c(=O)c2c(nc(NCCc3c[nH]c4ccccc34)n2Cc2ccc(Cl)cc2)n(CC#N)c1=O`: the values for the 50% effective concentration (EC50) in experiment [1] and in experiment [2] were 1220 nM and 981 nM, respectively. As to `Cn1c(=O)c2c(nc(NCCc3c[nH]c4ccccc34)n2Cc2cccc(Br)c2)n(C)c1=O`, the figures for the concentration for a half-maximal effect (EC50) in experiment [1] and in experiment [2] were 10 nM and 180 nM, respectively. The Ki in experiment [3] is 344 nM.

`Cn1c(=O)c2c(nc(NCCc3c[nH]c4ccccc34)n2Cc2ccc(Cl)cc2Cl)n(C)c1=O`: the results for the 50% effective concentration (EC50) in experiment [1] and in experiment [2] were 64 nM and 244 nM, respectively.

With `Cn1c(=O)c2c(nc(NCCc3c[nH]c4ccccc34)n2Cc2ccccc2)n(C)c1=O`, the EC50 was 149 nM in experiment [1] and 194 nM in experiment [2]. Take `Cc1ccc(Cn2c(NCCc3c[nH]c4ccccc34)nc3c2c(=O)n(C)c(=O)n3C)cc1`: the Ki is 3480 nM in experiment [4] (read-out: Ki) and 827 nM in experiment [3]. Also, the EC50 in experiment [1] stood at 24 nM; in experiment [2], 46 nM. Consider `Cn1c(=O)c2c(nc(NCCc3c[nH]c4ccccc34)n2Cc2ccc(Cl)c(F)c2)n(C)c1=O`, for which the EC50 in experiment [2] was found to be 121 nM. `Cn1c(=O)c2c(nc(NCCc3c[nH]c4ccccc34)n2CCCc2ccccc2)n(C)c1=O` displayed an EC50 in experiment [2] of 230 nM. Take `Cn1c(=O)c2c(nc(NCCc3c[nH]c4ccccc34)n2Cc2ccccc2Cl)n(C)c1=O`: the inhibition constant Ki in experiment [4] (read-out: Ki) and in experiment [3] was more than 10000 nM in each case. Also, the values for the 50% effective concentration (EC50) in experiment [1] and in experiment [2] were 60 nM and 157 nM, respectively. Turning to `Cn1c(=O)c2c(nc(NCCc3c[nH]c4ccccc34)n2CCOc2ccc(Cl)cc2)n(C)c1=O`, the midpoint of the response in experiment [2], the EC50, lay at 444 nM. Take `COC(=O)c1ccc(Cn2c(NCCc3c[nH]c4ccccc34)nc3c2c(=O)n(C)c(=O)n3C)cc1`: the figures for the EC50 in experiment [1] and in experiment [2] were 469 nM and 488 nM, respectively. `C=CCCn1c(NCCc2c[nH]c3ccccc23)nc2c1c(=O)n(C)c(=O)n2C`: in experiment [2], the EC50 came to 447 nM. Take `Cn1c(=O)c2c(nc(NCCc3c[nH]c4ccccc34)n2Cc2ccc(F)c(F)c2)n(C)c1=O`: the values for the EC50 in experiment [1] and in experiment [2] were 142 nM and 161 nM, respectively. In the case of `Cn1c(=O)[nH]c2nc(NCCc3c[nH]c4ccccc34)n(Cc3ccc(Cl)cc3)c2c1=O`, the concentration giving a half-maximal response (EC50) in experiment [1] stood at 206 nM; in experiment [2] it was 290 nM. The like results for `CCn1c(=O)n(C)c(=O)c2c1nc(NCCc1c[nH]c3ccccc13)n2Cc1ccc(Cl)cc1` were, in that order, 95 nM and 297 nM. The like results for `Cn1c(=O)c2c(nc(NCCc3c[nH]c4ccccc34)n2Cc2ccc(Cl)cc2)n(CCF)c1=O` were, in that order, 351 nM and 398 nM. Take `CCn1c(NCCc2c[nH]c3ccccc23)nc2c1c(=O)n(C)c(=O)n2C`: the EC50 in experiment [1] was 190 nM; in experiment [2], 379 nM. For the compound `Cn1c(=O)c2c(nc(NCCc3c[nH]c4ccccc34)n2Cc2ccc(F)c(Cl)c2)n(C)c1=O`, the EC50 in experiment [1] is 193 nM; in experiment [2], 251 nM. For the compound `COc1ccc(Cn2c(NCCc3c[nH]c4ccccc34)nc3c2c(=O)n(C)c(=O)n3C)cc1`, the Ki entry in experiment [4] (cho) is recorded as “Not Active”. Besides, the EC50 in experiment [1] came out at 138 nM; in experiment [2] it was 171 nM. `Cn1c(=O)c2c(nc(NCCc3c[nH]c4ccccc34)n2Cc2ccc(S(N)(=O)=O)cc2)n(C)c1=O`: the half-maximal effective concentration (EC50) in experiment [1] is 6640 nM; in experiment [2] it was 10900 nM.

Consider `CC(C)c1ccc(Cn2c(NCCc3c[nH]c4ccccc34)nc3c2c(=O)n(C)c(=O)n3C)cc1`, for which the values for the inhibition constant (Ki) in experiment [4] (read-out: Ki) and in experiment [3] were 6280 nM and 150 nM, respectively. Also, the concentration for a half-maximal effect (EC50) in experiment [2] amounted to 150 nM.

In the case of `CCCn1c(=O)n(C)c(=O)c2c1nc(NCCc1c[nH]c3ccccc13)n2Cc1ccc(Cl)cc1`, the EC50 in experiment [1] and in experiment [2] was more than 10000 nM in each case. As to `Cn1c(=O)c2c(nc(NCCc3c[nH]c4ccccc34)n2C)n(C)c1=O`, the EC50 in experiment [1] came out at 902 nM; in experiment [2] it was 2970 nM.

On to `Cn1c(=O)c2c(nc(NCCc3c[nH]c4ccccc34)n2Cc2cccc(F)c2)n(C)c1=O`, for which the midpoint of the response in experiment [2], the EC50, lay at 301 nM. `CCCNS(=O)(=O)c1ccc(Cn2c(NCCc3c[nH]c4ccccc34)nc3c2c(=O)n(C)c(=O)n3C)cc1`: in experiment [2], a half-maximal response (EC50) required 1300 nM. On the same count and under the same terms, the result for `Cn1c(=O)c2c(nc(NCCc3c[nH]c4ccccc34)n2CCC2CCCCC2)n(C)c1=O` reads 127 nM.
